Source: ChEMBL document CHEMBL4049391, “Vicinal diaryl azole-based urea derivatives as potential cholesterol lowering agents acting through inhibition of SOAT enzymes” (Eur J Med Chem, 2017)
Active and inactive are the calls of the source. No cut-off for these calls is given here.

Legend:
[1] = system: Rattus norvegicus; assay: Acute toxicity in Wistar rat assessed as change in grooming behavior at 2000 mg/kg, po administered as single dose measured at 6 hrs post dose; format: organism-based; conditions: in vivo
[2] = system: Rattus norvegicus; assay: Anti-atherosclerosis activity in po dosed high cholesterol diet-induced Wistar rat atherogenesis model assessed as reduction in serum total cholesterol level administered once daily measured after 4 weeks; format: functional, organism-based
[3] = system: Rattus norvegicus; assay: Toxicity in Wistar rat assessed as cutaneous toxicity at 10 to 30 mg/kg, po administered once daily measured after 4 weeks; format: organism-based; conditions: in vivo, 672 h
[4] = system: Rattus norvegicus; assay: Acute toxicity in Wistar rat assessed as hematological changes at 60 mg/kg, po administered as repeated dosing for 28 days; format: organism-based; conditions: in vivo, 672 h
[5] = Acute toxicity in Wistar rat assessed as mortality administered orally as single dose measured up to 14 days; conditions: in vivo, po, read-out: CD50
[6] = system: Rattus norvegicus; assay: Acute toxicity in Wistar rat assessed as effect on normal behavior at 60 mg/kg, po administered as repeated dosing for 28 days; format: organism-based; conditions: in vivo, 672 h
[7] = system: Rattus norvegicus; assay: Acute toxicity in Wistar rat assessed as effect on skin color at 2000 mg/kg, po administered as single dose measured up to 14 days; format: organism-based; conditions: in vivo, 336 h
[8] = system: Rattus norvegicus; assay: Anti-atherosclerosis activity in high cholesterol diet-induced Wistar rat atherogenesis model assessed as reduction in fatty streak formation in thoracic aorta at 10 mg/kg, po administered once daily measured after 4 weeks by Sudan red 4 staining based photographic method; format: functional, organism-based
[9] = system: Rattus norvegicus; assay: Acute toxicity in Wistar rat assessed as effect on gastrointestinal tract at 2000 mg/kg, po administered as single dose measured up to 14 days; format: organism-based; conditions: in vivo, 336 h
[10] = system: Rattus norvegicus; assay: Acute toxicity in Wistar rat assessed as changes in eyes at 2000 mg/kg, po administered as single dose measured up to 14 days; format: organism-based; conditions: in vivo, 336 h
[11] = system: Rattus norvegicus; assay: Anti-atherosclerosis activity in high cholesterol diet-induced Wistar rat atherogenesis model assessed as atherogenic index at 30 mg/kg, po administered once daily measured after 4 weeks (reference value: 19.59 +/- 5.8); format: functional

Structure (SMILES): CCCCNC(=O)Nc1ccc(-c2sc(C)nc2-c2ccc(C)cc2)cc1
- Activity [1]: Non-Toxic
- Activity [2]: Dose-dependent effect
- Activity [3]: Non-Toxic
- Activity [4]: Non-Toxic
- LD50 at 336 h [5]: > 2000 mg/kg
- Activity [6]: Non-Toxic
- Activity [7]: Non-Toxic
- Activity [8]: inactive
- Activity [9]: Non-Toxic
- Activity [10]: Non-Toxic
- Activity_index [11]: 1.82
